Key:
[1] = tested on: Arabidopsis thaliana seedlings; test: Auxin activity, root growth bioassay in A. thaliana seedlings; format: in vivo; details: 4-days old seedlings, MS-Agar; formulation 0.1, 1, 10, 25% v/v; IAA 1, 10 and 100 nM
Experimental: Auxin Activity • Auxin activity was determined by measuring the growth of the main root in seedlings of Arabidopsis thaliana, and the amount of side roots to estimate the root density according to Iglesias et al. (2014). Briefly, 4-days old A. thaliana seedlings were grown in a MS-Agar medium supplemented with different concentrations of the formulation of Example 5 (0.1, 1, 10, 25% v/v). As reference, different concentrations of indole-acetic acid (IAA) were used (1, 10 and 100 nM). Three independent assays were carried out, with 8 seedlings per treatment (N=24).

[2] = tested on: cucumber cotyledons (Cucumis sativus var. Runner); test: Cytokinin activity, cucumber cotyledons greening bioassay (chlorophyll content); details: incubated 20 h, then light 16 hs; SPAD detector and acetone extraction
Experimental: Cytokinin Activity • Cytokinin activity was determined by quantifying the chlorophyll content in cucumber cotyledons (Fletcher et al., 1982). Briefly, cucumber (Cucumis sativus var. Runner) seeds were germinated and grown in darkness for 7 days. Then, the cotyledons were cut and incubated for 20 h under different concentrations of the formulation of Example 5 (0.1, 1, 10 and 100% v/v). As a positive control, different concentrations of a cytokinin analog, kinetin, were used (0.01, 0.1, 1 and 10 μg/ml). Then the cotyledons were exposed to light for 16 hs, and the chlorophyll content was determined by two methods: by means of a manual SPAD detector (Chlorophyll meter SPAD-502, Konica Minolta), and by extracting the chlorophyll with acetone (Arnon 1949). Three independent assays were carried out, with 8 cotyledons per treatment (N=24).

Compound | growth of the main root [1] | number of side roots [1] | greening of cotyledons (chlorophyll content) [2]
O=C(O)Cc1c[nH]c2ccccc12 [IAA, indole-acetic acid] | dose-dependent shortening of the main root | increase in the number of side roots | –
c1coc(CNc2ncnc3[nH]cnc23)c1 [kinetin] | – | – | stimulated the greening of the etiolated cotyledons depending on the dose

Reference: patent US20240138417A1, “TRICHODERMA-BASED BIOENHANCER FOR FOLIAR APPLICATION IN PLANTS” (YPF TECNOLOGÍA S.A., priority 2022, published 2024)
